The target of test [1] is High affinity 3',5'-cyclic-AMP phosphodiesterase 7A (Homo sapiens, UniProt Q13946). Kind of test: Inhibition of human recombinant PDE7A using cAMP as substrate incubated for 20 mins measured by Kinase Glo reagent based microplate reader assay. Background: In Kinase-Glo more light means more ATP remaining.
The target in test [2] is 3',5'-cyclic-AMP phosphodiesterase 4B (Homo sapiens, UniProt Q07343). Kind of test: Inhibition of human recombinant PDE4B using cAMP as substrate incubated for 20 mins measured by Kinase Glo reagent based microplate reader assay.
Chain of 3',5'-cyclic-AMP phosphodiesterase 4B (Q07343 whole entry): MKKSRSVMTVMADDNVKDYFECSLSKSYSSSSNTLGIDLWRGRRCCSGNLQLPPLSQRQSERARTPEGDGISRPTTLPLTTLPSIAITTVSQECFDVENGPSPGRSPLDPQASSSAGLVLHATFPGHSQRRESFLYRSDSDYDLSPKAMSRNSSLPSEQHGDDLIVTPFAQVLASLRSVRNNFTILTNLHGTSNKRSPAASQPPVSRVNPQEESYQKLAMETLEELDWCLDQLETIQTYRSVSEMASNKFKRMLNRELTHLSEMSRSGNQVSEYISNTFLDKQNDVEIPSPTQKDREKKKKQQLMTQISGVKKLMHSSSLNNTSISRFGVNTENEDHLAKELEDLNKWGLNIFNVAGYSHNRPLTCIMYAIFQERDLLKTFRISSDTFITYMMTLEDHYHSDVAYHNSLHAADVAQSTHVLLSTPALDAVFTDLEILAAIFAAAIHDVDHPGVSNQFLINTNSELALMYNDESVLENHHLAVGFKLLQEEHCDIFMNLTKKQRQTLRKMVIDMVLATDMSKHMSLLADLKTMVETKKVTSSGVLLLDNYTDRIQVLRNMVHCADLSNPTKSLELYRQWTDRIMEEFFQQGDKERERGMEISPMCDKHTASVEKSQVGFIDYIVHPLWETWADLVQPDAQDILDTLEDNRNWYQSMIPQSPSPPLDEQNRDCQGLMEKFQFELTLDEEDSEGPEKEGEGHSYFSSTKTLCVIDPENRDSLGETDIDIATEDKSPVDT
Test [3] addresses cGMP-dependent 3',5'-cyclic phosphodiesterase (Homo sapiens, UniProt O00408). The test can be described thus: Inhibition of human recombinant PDE2A using cGMP as substrate incubated for 20 mins measured by Kinase Glo reagent based microplate reader assay.
Test [4] deals with cGMP-inhibited 3',5'-cyclic phosphodiesterase 3A (Homo sapiens, UniProt Q14432). The test can be described thus: Inhibition of human recombinant PDE3A using cAMP as substrate incubated for 20 mins measured by Kinase Glo reagent based microplate reader assay.
For test [5], the target named is Dual specificity calcium/calmodulin-dependent 3',5'-cyclic nucleotide phosphodiesterase 1B (Homo sapiens, UniProt Q01064). Kind of test: Inhibition of human recombinant PDE1B using cAMP as substrate incubated for 20 mins measured by Kinase Glo reagent based microplate reader assay.
Chain of Dual specificity calcium/calmodulin-dependent 3',5'-cyclic nucleotide phosphodiesterase 1B (Q01064 whole entry): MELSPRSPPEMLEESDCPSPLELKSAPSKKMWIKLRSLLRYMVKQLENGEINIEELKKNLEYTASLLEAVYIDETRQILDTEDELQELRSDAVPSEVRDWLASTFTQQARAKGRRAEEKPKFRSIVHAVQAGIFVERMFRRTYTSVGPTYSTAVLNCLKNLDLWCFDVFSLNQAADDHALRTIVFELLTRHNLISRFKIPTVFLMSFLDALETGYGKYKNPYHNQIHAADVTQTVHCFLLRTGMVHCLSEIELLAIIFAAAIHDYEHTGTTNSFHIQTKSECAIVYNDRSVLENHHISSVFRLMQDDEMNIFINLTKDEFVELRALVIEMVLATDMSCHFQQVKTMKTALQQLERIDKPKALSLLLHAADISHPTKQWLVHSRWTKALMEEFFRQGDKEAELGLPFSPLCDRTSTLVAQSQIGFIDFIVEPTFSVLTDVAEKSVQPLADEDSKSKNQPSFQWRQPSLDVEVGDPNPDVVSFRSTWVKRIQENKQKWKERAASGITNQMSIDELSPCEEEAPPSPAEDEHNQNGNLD
Test [6] in a line: Selectivity index, ratio of IC50 for inhibition of human recombinant PDE3A to IC50 for inhibition of human recombinant PDE4B.
The target of test [7] is cGMP-specific 3',5'-cyclic phosphodiesterase (Homo sapiens, UniProt O76074). Kind of test: Inhibition of human recombinant PDE5A using cGMP as substrate incubated for 20 mins measured by Kinase Glo reagent based microplate reader assay.
The target of test [8] is cAMP and cAMP-inhibited cGMP 3',5'-cyclic phosphodiesterase 10A (Homo sapiens, UniProt Q9Y233). Kind of test: Inhibition of human recombinant PDE10A using cAMP as substrate incubated for 20 mins measured by Kinase Glo reagent based microplate reader assay.
Chain of cAMP and cAMP-inhibited cGMP 3',5'-cyclic phosphodiesterase 10A (Q9Y233 whole entry): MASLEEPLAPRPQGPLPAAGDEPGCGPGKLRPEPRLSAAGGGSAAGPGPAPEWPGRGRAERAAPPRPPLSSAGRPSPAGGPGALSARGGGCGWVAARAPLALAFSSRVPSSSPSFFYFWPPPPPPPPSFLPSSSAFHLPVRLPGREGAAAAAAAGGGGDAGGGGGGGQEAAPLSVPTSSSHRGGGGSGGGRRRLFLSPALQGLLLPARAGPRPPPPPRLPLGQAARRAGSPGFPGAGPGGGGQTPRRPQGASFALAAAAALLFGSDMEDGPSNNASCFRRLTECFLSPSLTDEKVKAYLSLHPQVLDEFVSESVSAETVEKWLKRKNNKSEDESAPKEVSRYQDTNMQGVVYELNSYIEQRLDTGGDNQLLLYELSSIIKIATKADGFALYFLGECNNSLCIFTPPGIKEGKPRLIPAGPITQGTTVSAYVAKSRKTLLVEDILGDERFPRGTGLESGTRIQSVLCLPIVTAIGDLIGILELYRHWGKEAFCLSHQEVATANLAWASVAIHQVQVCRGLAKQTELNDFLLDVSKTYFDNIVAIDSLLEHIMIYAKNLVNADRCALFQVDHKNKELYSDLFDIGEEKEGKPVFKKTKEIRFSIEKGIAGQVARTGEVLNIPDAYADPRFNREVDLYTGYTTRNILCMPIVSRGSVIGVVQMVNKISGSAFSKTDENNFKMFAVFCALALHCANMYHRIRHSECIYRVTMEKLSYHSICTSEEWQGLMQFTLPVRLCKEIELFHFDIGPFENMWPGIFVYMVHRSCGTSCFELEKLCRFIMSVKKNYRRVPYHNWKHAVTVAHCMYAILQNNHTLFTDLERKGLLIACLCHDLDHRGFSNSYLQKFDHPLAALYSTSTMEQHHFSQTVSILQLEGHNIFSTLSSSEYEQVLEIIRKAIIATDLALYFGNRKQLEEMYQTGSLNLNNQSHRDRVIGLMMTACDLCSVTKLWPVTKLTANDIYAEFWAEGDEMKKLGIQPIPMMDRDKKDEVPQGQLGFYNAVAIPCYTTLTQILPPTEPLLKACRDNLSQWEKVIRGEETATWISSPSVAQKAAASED
The target in test [9] is 3',5'-cyclic-AMP phosphodiesterase 4D (Homo sapiens, UniProt Q08499). The test can be described thus: Inhibition of human recombinant PDE4D using cAMP as substrate incubated for 20 mins measured by Kinase Glo reagent based microplate reader assay.
Chain of 3',5'-cyclic-AMP phosphodiesterase 4D (Q08499 whole entry): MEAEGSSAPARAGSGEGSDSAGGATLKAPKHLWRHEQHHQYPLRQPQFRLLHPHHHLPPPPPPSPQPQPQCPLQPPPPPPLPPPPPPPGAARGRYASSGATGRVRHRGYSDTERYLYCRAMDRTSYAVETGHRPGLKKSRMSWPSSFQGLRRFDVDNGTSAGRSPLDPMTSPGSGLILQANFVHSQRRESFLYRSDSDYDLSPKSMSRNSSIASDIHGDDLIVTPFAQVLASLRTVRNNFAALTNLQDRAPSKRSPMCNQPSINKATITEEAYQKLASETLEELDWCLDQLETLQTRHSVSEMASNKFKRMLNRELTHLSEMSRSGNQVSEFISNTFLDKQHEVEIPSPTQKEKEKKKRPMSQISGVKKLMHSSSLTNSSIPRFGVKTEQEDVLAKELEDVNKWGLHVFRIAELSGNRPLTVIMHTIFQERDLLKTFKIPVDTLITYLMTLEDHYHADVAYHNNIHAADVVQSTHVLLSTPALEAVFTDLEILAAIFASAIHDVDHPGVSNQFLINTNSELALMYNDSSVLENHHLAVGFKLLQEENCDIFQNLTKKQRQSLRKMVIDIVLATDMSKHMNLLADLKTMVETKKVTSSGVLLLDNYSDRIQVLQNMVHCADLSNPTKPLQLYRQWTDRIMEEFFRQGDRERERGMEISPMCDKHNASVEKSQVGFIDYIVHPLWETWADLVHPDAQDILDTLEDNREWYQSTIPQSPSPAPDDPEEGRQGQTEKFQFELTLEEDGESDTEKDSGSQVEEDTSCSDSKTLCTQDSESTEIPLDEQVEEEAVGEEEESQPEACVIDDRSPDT
Test [10] is described as follows: Selectivity index, ratio of IC50 for inhibition of human recombinant PDE4D to IC50 for inhibition of human recombinant PDE4B.
Test [11] relates to Rattus norvegicus. Kind of test: Antiinflammatory activity in LPS-induced Wistar rat endotoxemia model assessed as decrease in plasma TNFalpha level at 5 mg/kg, ip measured after 1.5 hr. The test is classed as functional. On the set-up: scale not given: the % may be the effect or the level left.
Test [12] has as its system Mus musculus. The test can be described thus: Hepatoprotective activity in ConA-induced BALB/c hepatitis mouse model assessed as decrease in serum IFNgamma level at 50 mg/kg, ip administration and measured after 8 hrs relative to control. The test is classed as functional, organism-based.
Test [13] deals with Mus musculus. Kind of test: Hepatoprotective activity in ConA-induced BALB/c hepatitis mouse model assessed as decrease in serum alanine aminotransferase level at 10 mg/kg, ip administration and measured after 8 hrs relative to control. It counts as functional, organism-based.
Test [14] has as its system Mus musculus. The test can be described thus: Hepatoprotective activity in ConA-induced BALB/c hepatitis mouse model assessed as decrease in serum aspartate aminotransferase level at 10 mg/kg, ip administration and measured after 8 hrs relative to control. It counts as functional, organism-based.
Test [15] deals with Mus musculus. The test can be described thus: Hepatoprotective activity in ConA-induced BALB/c hepatitis mouse model assessed as decrease in serum IFNgamma level at 10 mg/kg, ip administration and measured after 8 hrs relative to control. It counts as functional, organism-based.
The test system of test [16] is Mus musculus. Kind of test: Hepatoprotective activity in ConA-induced BALB/c hepatitis mouse model assessed as decrease in serum aspartate aminotransferase level at 50 mg/kg, ip administration and measured after 8 hrs relative to control. It counts as functional, organism-based.
For test [17], the system named is Mus musculus. The test can be described thus: Hepatoprotective activity in ConA-induced BALB/c hepatitis mouse model assessed as decrease in serum alanine aminotransferase level at 50 mg/kg, ip administration and measured after 8 hrs relative to control. It counts as functional, organism-based.
For test [18], the system named is Mus musculus. The test can be described thus: Hepatoprotective activity in ConA-induced BALB/c hepatitis mouse model assessed as decrease in serum IL-6 level at 50 mg/kg, ip administration and measured after 8 hrs relative to control. The test is classed as functional, organism-based.
Test [19] relates to Rattus norvegicus. Kind of test: Antiinflammatory activity in LPS-induced Wistar rat endotoxemia model assessed as decrease in plasma TNFalpha level at 5 mg/kg, ip measured after 2 hr. The test is classed as functional. On the set-up: scale not given: the % may be the effect or the level left.
Test [20] relates to Mus musculus. Kind of test: Hepatoprotective activity in ConA-induced BALB/c hepatitis mouse model assessed as decrease in serum IL-6 level at 10 mg/kg, ip administration and measured after 8 hrs relative to control. It counts as functional, organism-based.
For test [21], the system named is Rattus norvegicus. The test can be described thus: Antiinflammatory activity in LPS-induced Wistar rat endotoxemia model assessed as decrease in plasma TNFalpha level at 5 mg/kg, ip measured after 1 hr. It counts as functional. On the set-up: scale not given: the % may be the effect or the level left.

The source made the active and inactive calls. The rule behind the calls is not given here.

Chain of cGMP-dependent 3',5'-cyclic phosphodiesterase (O00408 whole entry): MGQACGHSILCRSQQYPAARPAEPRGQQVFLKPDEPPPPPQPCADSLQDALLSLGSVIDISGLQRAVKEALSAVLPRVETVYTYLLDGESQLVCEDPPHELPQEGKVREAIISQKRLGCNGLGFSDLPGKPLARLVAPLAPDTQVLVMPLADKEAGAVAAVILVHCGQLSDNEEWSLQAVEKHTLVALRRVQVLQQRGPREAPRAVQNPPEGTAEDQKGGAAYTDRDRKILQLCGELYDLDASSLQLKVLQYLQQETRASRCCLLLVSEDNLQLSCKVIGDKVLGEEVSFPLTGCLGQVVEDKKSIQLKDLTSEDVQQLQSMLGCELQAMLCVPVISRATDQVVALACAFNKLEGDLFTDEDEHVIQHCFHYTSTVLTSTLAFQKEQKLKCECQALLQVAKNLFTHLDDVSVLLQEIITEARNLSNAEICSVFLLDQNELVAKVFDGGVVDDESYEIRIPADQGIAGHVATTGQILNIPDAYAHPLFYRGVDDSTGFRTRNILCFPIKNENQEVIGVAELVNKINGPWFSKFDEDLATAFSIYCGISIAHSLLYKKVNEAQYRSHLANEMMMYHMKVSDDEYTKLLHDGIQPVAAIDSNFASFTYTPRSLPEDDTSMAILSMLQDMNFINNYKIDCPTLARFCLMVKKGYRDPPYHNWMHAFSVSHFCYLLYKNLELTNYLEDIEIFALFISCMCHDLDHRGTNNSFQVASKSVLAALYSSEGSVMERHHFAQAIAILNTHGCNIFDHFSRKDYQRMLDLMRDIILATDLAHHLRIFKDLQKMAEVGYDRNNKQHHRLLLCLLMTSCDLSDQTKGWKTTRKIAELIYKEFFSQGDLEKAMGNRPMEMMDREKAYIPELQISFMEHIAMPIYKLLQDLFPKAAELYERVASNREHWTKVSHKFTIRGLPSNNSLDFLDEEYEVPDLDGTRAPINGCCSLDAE
Chain of High affinity 3',5'-cyclic-AMP phosphodiesterase 7A (Q13946 whole entry): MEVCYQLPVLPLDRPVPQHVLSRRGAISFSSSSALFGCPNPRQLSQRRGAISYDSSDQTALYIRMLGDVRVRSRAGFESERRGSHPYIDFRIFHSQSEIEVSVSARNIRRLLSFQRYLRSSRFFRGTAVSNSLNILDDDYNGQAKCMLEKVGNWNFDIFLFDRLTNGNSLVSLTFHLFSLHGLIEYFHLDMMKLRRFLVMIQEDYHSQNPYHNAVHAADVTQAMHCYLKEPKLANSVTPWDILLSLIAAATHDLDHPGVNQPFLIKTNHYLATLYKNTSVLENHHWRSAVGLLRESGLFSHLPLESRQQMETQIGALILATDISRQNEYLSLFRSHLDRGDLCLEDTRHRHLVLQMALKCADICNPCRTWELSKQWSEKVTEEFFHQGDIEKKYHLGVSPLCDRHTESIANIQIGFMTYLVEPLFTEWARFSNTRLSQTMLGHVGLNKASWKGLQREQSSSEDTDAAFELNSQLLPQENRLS

In the case of `CCCCCn1c(-c2ccccc2)nc2c(NCc3ccccc3)ccnc21`, the IC50 in test [1] is above 200 µM; in [2], 16.9 µM.
For `CCCCCn1c(-c2ccco2)nc2c(NCCCO)ccnc21`, in that order: 63.6 µM and 49.7 µM.
Take `CCCCCC[C@H]([C@H](C)O)n1cnc2c(N)ncnc21` [(+)-EHNA]: in test [3], the IC50 is 2.62 µM.
With `CCCCCn1c(-c2ccco2)nc2c(N)ccnc21`, the concentration for half-maximal inhibition (IC50) in [1] is above 200 µM; in test [2], 39.9 µM.
For `CCCCCn1c(-c2ccco2)nc2c(NCCOC)ccnc21`, in that order: above 200 µM and 9.77 µM.
In the same order, the values of `COCCCNc1nccc2c1nc(-c1ccco1)n2C1CCCC1` are 142 µM and 19.9 µM.
In the same order, the values of `Nc1ccnc2c1nc(-c1ccccc1)n2CCN1CCCCC1` are above 200 µM and 103 µM.
For the compound `COCCNc1nccc2c1nc(-c1ccco1)n2C1CCCC1`, the IC50 in [1] is 192 µM; in test [2], 18.1 µM.
`Cc1ccc([N+](=O)[O-])cc1S(=O)(=O)N(C)C`: the 50% inhibitory concentration (IC50) in test [1] came out at 2.32 µM.
Same read-out and setting: the result for `Nc1nc(O)c2nc(Br)n(C3CCCc4cccc(Br)c43)c2n1` (stereo not given) reads 1.31 µM.
For the compound `OCCCNc1nccc2c1nc(-c1ccco1)n2C1CCCC1`, the concentration for half-maximal inhibition (IC50) is above 200 µM in [1] and 19 µM in [2].
In the same order, the values of `Nc1ccnc2c1nc(-c1ccccc1)n2CCCO` are above 200 µM and 100 µM.
As to `CCCCCn1c(-c2ccc([N+](=O)[O-])cc2)nc2c(N)ccnc21`, the IC50 in [1] and in [2] was above 200 µM each time.
As to `CCCCCn1c(-c2ccco2)nc2c(NCCCOC)ccnc21`, the half-inhibitory concentration (IC50) in test [4] was 40.6 µM; in test [1], 34.2 µM; in test [2], 3.53 µM; in [5] it was 360 nM; in test [3], 6.85 µM; in test [7], 53.5 µM. In addition, the IC50 was determined as 9.97 µM in test [8] and 27.2 µM in [9]. Moreover, the Ratio IC50 in test [6] was above 10; in test [10] it was 10.
`COc1ccc(C2CNC(=O)C2)cc1OC1CCCC1` (stereo not given) [ROLIPRAM]: the Activity in test [11] was 73.5%; in [19] it was 77.1%; in test [21], 85.6%. In addition, the outcome in test [12], in [13], in test [14], in test [15], in [16] and in [17] was Active. The result in test [18] and in [20] was Active.
In the case of `CCCCCn1c(-c2ccccc2)nc2c(N)ccnc21`, the IC50 was above 200 µM in [1] and 29 µM in test [2].
In the same order, the values of `CCCCCn1c(-c2ccco2)nc2c(NCc3ccccc3)nccc21` are above 200 µM and 8.34 µM.
As to `CNc1nc(C(F)(F)F)nc2c1ncn2Cc1ccccc1F`, the IC50 in [2] was 0.042 µM.
As for `c1coc(-c2nc3c(NCCc4cccs4)nccc3n2C2CCCC2)c1`, the values for the IC50 in test [1] and in [2] were above 200 µM and 2.8 µM, respectively.
In the same order, the values of `COCCNc1ccnc2c1nc(-c1ccco1)n2C1CCCC1` are 119 µM and 5.41 µM.
For `CCCCCn1c(-c2ccccc2)nc2c(NCCCO)nccc21`, in that order: above 200 µM and 60 µM.
In the same order, the values of `CCCCCn1c(-c2ccccc2)nc2c(NCCc3cccs3)ccnc21` are above 200 µM and 7.09 µM.
For the compound `CCCCCn1c(-c2ccccc2)nc2c(NCCCO)ccnc21`, the IC50 in test [1] was above 200 µM; in test [2] it was 23.2 µM.
In the same order, the values of `CCCCCn1c(-c2ccco2)nc2c(NCCCOC)nccc21` are 83.3 µM and 12.6 µM.
In the same order, the values of `CCCCCn1c(-c2ccccc2)nc2c(NCCc3cccs3)nccc21` are above 200 µM and 15.6 µM.
For `COCCCNc1ccnc2c1nc(-c1ccco1)n2C1CCCC1`, in that order: 90.5 µM and 8.6 µM.
As to `CCOC(=O)C1=C[C@]2(CC)CCCN3CCc4c(n1c1ccccc41)[C@@H]32` [VINPOCETINE], in [5], the half-maximal inhibitory concentration (IC50) was 7990 nM.
On to `CCCCCn1c(-c2ccco2)nc2c(NCc3ccccc3)ccnc21`, for which the IC50 in [1] is above 200 µM; in [2], 8.66 µM.
For `c1coc(-c2nc3c(NCCc4cccs4)ccnc3n2C2CCCC2)c1`, in that order: above 200 µM and 3.25 µM.
Regarding `CCCCCn1c(-c2ccco2)nc2c(N(C)CCCO)nccc21`, the IC50 in test [4] turned out to be 9.92 µM; in test [1], 7.24 µM; in [2], 3.48 µM; in test [5] it was 2300 nM; in test [3], 21.8 µM; in test [7], 2.91 µM. The IC50 came out at 2.95 µM in test [8] and 25.8 µM in test [9]. In addition, the outcome in test [18] was inactive.
On to `CCCCCn1c(-c2ccccc2)nc2c(NCc3ccccc3)nccc21`, for which the results for the IC50 in test [1] and in test [2] were above 200 µM and 102 µM, respectively.
In the same order, the values of `CCCCCn1c(-c2ccco2)nc2c(N(C)CCCO)ccnc21` are 18.8 µM and 18 µM.
In the same order, the values of `CCCCCn1c(-c2ccc(OC)cc2)nc2c(N)ccnc21` are above 200 µM and 41.5 µM.

The term IC50 denotes the concentration at which inhibition is half-maximal.

The values are drawn from ChEMBL document CHEMBL4732047, “New imidazopyridines with phosphodiesterase 4 and 7 inhibitory activity and their efficacy in animal models of inflammatory and autoimmune diseases” (Eur J Med Chem, 2021).
